Test results reported in ChEMBL document CHEMBL1131437, “Resistance-modifying agents. 5. Synthesis and biological properties of quinazolinone inhibitors of the DNA repair enzyme poly(ADP-ribose) polymerase (PARP)” (J Med Chem, 1998).
pIC50: −log10 of the molar value.

These molecules were tested against Poly [ADP-ribose] polymerase 1 (Mus musculus, UniProt P11103) (assay: biochemical).
Chain of Poly [ADP-ribose] polymerase 1 (P11103 whole entry): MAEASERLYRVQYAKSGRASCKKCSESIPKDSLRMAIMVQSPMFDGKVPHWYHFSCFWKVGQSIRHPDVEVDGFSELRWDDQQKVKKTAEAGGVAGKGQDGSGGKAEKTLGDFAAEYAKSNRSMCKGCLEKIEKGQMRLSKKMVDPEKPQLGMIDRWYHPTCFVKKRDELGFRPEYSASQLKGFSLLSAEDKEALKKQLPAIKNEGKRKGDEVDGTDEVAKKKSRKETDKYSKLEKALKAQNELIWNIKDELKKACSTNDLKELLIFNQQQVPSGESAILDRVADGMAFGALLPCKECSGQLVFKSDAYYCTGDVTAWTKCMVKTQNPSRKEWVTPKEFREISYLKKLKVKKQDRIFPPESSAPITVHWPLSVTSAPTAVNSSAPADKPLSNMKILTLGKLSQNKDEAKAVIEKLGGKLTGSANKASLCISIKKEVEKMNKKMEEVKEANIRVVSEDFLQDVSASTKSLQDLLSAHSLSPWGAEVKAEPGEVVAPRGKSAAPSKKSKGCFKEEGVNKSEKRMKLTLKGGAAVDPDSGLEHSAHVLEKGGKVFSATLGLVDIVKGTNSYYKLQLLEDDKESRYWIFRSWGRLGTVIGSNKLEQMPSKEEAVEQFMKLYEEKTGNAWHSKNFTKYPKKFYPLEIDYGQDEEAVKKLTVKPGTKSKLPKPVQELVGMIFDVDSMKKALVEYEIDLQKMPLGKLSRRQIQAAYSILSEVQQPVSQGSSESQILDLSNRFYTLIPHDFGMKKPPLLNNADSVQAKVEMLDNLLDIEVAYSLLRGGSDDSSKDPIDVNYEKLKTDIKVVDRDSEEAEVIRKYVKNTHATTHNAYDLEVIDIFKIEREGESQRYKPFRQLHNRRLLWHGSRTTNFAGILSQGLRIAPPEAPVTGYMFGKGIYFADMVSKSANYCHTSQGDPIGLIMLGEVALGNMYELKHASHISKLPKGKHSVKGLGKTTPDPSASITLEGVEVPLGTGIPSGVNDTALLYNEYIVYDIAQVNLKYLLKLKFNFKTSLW
Description: Inhibition of the DNA repair Poly (ADP-ribose) polymerase 1, in permeabilised L1210 murine leukemia cells

| SMILES | pIC50 |
| --- | --- |
| Cc1cccc2c(O)nc(-c3ccc(C#N)cc3)nc12 | 6.57 |
| COc1cccc2c(O)nc(-c3ccc(C(F)(F)F)cc3)nc12 | 4.41 |
| Cc1cccc2c(=O)[nH]c(-c3ccccc3)nc12 | 6.06 |
| COc1cccc2c(O)nc(-c3ccc([N+](=O)[O-])cc3)nc12 | 6.07 |
| Cc1cccc2c(=O)[nH]c(-c3ccc(O)cc3)nc12 | 6.66 |
| Nc1ccc(-c2nc(O)c3cccc(O)c3n2)cc1 | 6.49 |
| COc1ccc(-c2nc3c(C)cccc3c(=O)[nH]2)cc1 | 6.72 |
| COc1cccc2c(=O)[nH]c(-c3ccc(N=[N+]=[N-])cc3)nc12 | 5.71 |
| COc1cccc2c(=O)n(C)c(C)nc12 | < 4.00 |
| Cc1nc(O)c2cccc(C)c2n1 | 6.41 |
| COc1cccc2c(O)nc(-c3ccc(N)cc3)nc12 | < 6.52 |
| Cc1nc2c(O)cccc2c(=O)n1C | < 4.00 |
| COc1cccc2c(O)nc(-c3ccc(C#N)cc3)nc12 | 5.87 |
| Cc1cccc2c(O)nc(-c3ccc(C(F)(F)F)cc3)nc12 | < 5.00 |
| Cc1cccc2c(O)nc(-c3ccc(N)cc3)nc12 | 6.36 |
| NC(=O)c1cccc(N)c1 [3-AMINOBENZAMIDE] | 4.72 |
